Consider 1 compound from patent US20050042674A9, “Common ligand mimics: thiazolidinediones and rhodanines” (priority 2002, published 2005).

For test [1], the target named is 1-deoxy-D-xylulose-5-phosphate reductase (DOXPR) (Escherichia coli, UniProt P45568). The test can be described thus: DOXPR kinetic assay, spectrophotometric oxidation of NADPH at 340 nm. The test is classed as biochemical. To be noted: Cibacron Blue at 10.32 μM; read-out: inhibition of DOXPR, positive control. How it is done:
DOXPR was diluted in 10 mM HEPES at a pH of 7.4.
Solutions of the inhibitors in DMSO were prepared to provide a final DMSO concentration of 5% of the total assay volume. […] The oxidation reaction was then initiated with 10 μl of DOXP reductoisomerase (10 μg/ml). […] Reading of the samples was continued until 300 seconds. […] The substrate was kept at a level at least 10 times the Km.

The target in test [2] is dihydrodipicolinate reductase (DHPR) (Escherichia coli, UniProt P04036). The test can be described thus: DHPR kinetic assay, spectrophotometric oxidation of NADPH at 340 nm. It counts as biochemical. As to conditions: Cibacron Blue at 2.58 μM; read-out: inhibition of DHPR, positive control. The procedure:
DHPR was diluted in 10 mM HEPES at a pH of 7.4. DHPS (dihydrodipicolinate synthase) was not diluted and was stored in eppindorf tubes.
The L-ASA (L-aspartate semialdehyde) solution was prepared in the following manner. […] stock solution of ASA was prepared. 100 μl of the ASA stock solution was mixed with 150 μl of concentrated NaHCO3 and 375 μl of H2O. For use in the assay, 28.8 mM L-ASA was equal to 625 μl of the solution. The L-ASA stock solution was kept at a temperature of −20° C. After dilution, the pH of the 28.8 mM solution was checked and maintained between 1 and 2.
(§1) The solution for background detection was a 945 μl solution containing 0.1 HEPES (pH 7.8), 1 mM pyruvate, 6 μM NADPH, 40 μM L-ASA, and 7 μl of 1 mg/ml DHPS at 25° C. in the volumes provided above. The sample solution was then mixed and incubated for 10 minutes. Next, 500 nM solutions of the inhibitors and enough DMSO to provide a final DMSO concentration of 5% of the total assay volume were added. The solution was mixed and incubated for an additional 6 minutes.
In DHPR samples, 5 μl of the diluted DHPR enzyme were added. The sample was mixed for 20 seconds and then the reaction was run for 10 minutes. […] Reading of the samples was continued until 300 seconds. […] The substrate was kept at a level at least 10 times the Km. The final concentration of L-ASA was about 1 mM.

The target of test [3] is T1, lactate dehydrogenase (LDH) (Oryctolagus cuniculus, UniProt P13491).
T1 construct: LDH from Rabbit Muscle; from tissue; host or cells: rabbit muscle
Kind of test: LDH kinetic assay, spectrophotometric oxidation of NADH at 340 nm. It counts as biochemical, Rabbit. To be noted: Cibacron Blue at 10.3 μM; read-out: inhibition of LDH, positive control. How it is done:
Solutions of 100 μl of the inhibitors in DMSO were prepared to provide a final DMSO concentration of 5% of the total assay volume. […] The reaction was then initiated with 10 μl of LDH from Rabbit Muscle (0.5 μ/ml; 1:2000 dilution of 1.0 mg/ml). […] Reading of the samples was continued until 300 seconds. […] The substrate was kept at a level at least 10 times the Km.

In another test the target is E. coli DHPR (Escherichia coli, UniProt P04036). The test can be described thus: Screening of bi-ligands on DHPR, kinetic oxidation of NADPH (Example 38). To be noted: Cibacron Blue at 2.58 μM, read-out: inhibition of DHPR, positive control. It counts as biochemical. How it is done:
Bi-ligands were produced by the methods of Examples 14 to 18. The bi-ligands were screened for binding to E. coli DHPR. The bi-ligands were screened using a kinetic protocol that spectrophotometrically evaluates oxidation of NADPH.
Dilution of DHPR was prepared in 10 mM HEPES at a pH of 7.4. DHPS was not diluted and was stored in eppindorf tubes.
The L-ASA solution was prepared in the following manner. […] stock solution of ASA was prepared. 100 μl of the ASA stock was mixed with 150 μl of concentrated NaHCO3 and 375 μl of H2O. For use in the assay, 28.8 mM L-ASA equal 625 μl of the solution. The L-ASA stock solution was kept at a temperature of −20° C. After dilution, the pH of the 28.8 mM solution was checked and maintained between 1 and 2.
as §1
In DHPR samples, 5 μl of the diluted DHPR enzyme were added. […] Reading of the samples was continued until 300 seconds. […]

The structures appear in SMILES notation.

Chain of 1-deoxy-D-xylulose-5-phosphate reductase (DOXPR) (P45568 whole entry): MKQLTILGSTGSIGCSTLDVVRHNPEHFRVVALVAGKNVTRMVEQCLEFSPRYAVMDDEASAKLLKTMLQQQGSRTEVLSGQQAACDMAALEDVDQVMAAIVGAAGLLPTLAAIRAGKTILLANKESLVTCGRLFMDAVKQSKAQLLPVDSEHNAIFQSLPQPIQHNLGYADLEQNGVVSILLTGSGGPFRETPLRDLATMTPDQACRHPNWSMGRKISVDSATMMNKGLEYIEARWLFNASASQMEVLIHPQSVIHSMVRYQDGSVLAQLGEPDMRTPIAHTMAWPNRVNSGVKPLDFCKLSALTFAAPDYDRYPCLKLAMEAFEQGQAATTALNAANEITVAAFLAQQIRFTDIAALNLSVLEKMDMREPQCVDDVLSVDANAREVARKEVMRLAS
Chain of dihydrodipicolinate reductase (DHPR) (P04036 whole entry): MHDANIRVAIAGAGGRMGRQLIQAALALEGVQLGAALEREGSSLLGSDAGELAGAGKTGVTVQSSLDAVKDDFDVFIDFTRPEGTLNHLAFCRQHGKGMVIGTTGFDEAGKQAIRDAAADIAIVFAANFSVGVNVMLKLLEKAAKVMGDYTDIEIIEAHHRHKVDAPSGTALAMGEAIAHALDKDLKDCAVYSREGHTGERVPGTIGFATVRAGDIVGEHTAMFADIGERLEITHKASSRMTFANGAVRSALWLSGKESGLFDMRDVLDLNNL
Chain of E. coli DHPR (P04036 whole entry): as above

The term inhibition denotes the change of the read-out against control, counted positive when it falls. Consider `Nc1c(S(=O)(=O)O)cc(Nc2ccc(Nc3nc(Cl)nc(Nc4ccccc4S(=O)(=O)O)n3)c(S(=O)(=O)O)c2)c2c1C(=O)c1ccccc1C2=O` [Cibacron Blue, reference compound], for which the inhibition at 10.32 µM in test [1] was in the range of 70 to 80%. The inhibition at 2.58 µM (in test [2]; at E. coli DHPR) was 70 to 80% throughout. Further, the inhibition at 10.3 µM in test [3] is 50 to 70%.
